# Experimental data published in patent publication US8835509B2, “Self emulsifying drug delivery system for a curcuminoid based composition” (Arbro Pharmaceuticals Ltd., priority 2010, dated 2014).
# Where two headings read alike, the source gives them in different places.
# How the values were obtained:
# [1] = rat intestine in vitro, cited from earlier work
# [2] = Solubility test of curcumin in oils, surfactants, milk, BSA and casein; format: physicochemical; settings: thermodynamic from solid
# Procedure: The solubility of curcumin in a number of oils such as citronella oil, castor oil, ethyl oleate, and palm rose oil, coconut oil, CAPRYOL™ 90 and a number of surfactants such as TWEEN® 80, CREMOPHOR® EL, PEG 200 and TRANSCUTOL® HP were determined in order to find out the appropriate oils and surfactants as compositions of SNEDDS. Solubility was also determined in milk, BSA and casein.
# An excess amount of curcumin was added to 5 ml of oil or surfactant solutions. The resultant mixture was shaken reciprocally at 37° C. for 72 h, followed by centrifugation at 12000 rpm for 10 min. The supernatant was filtered through a membrane filter (0.45 μm) to remove the remaining insoluble curcumin. After the appropriate dilution with methanol, the drug concentration in the filtrate was quantified by HPLC.
# [3] = rats, oral administration of 400 mg of curcumins, cited from earlier work
structure (smiles),measurement,setting,value
"COc1cc(/C=C/C(=O)/C=C(O)/C=C/c2ccc(O)c(OC)c2)ccc1O [Curcumin, curcumin]",absorption of curcumin,[1]; present as micelles,56%
same,absorption of curcumin,[1]; present in a free form,47%
same,solubility at 72 h,"[2]; 37 °C, plasma or biological fluid, in Casein, read-out: Solubility of Curcumin in milk, BSA and Casein",14 µg/mL
same,solubility at 72 h,"[2]; 37 °C, plasma or biological fluid, in Milk, read-out: Solubility of Curcumin in milk, BSA and Casein",23800 µg/mL
same,solubility at 72 h,"[2]; Almond oil, oil or lipid, in Almond, 37° C., 72 h, read-out: Solubility of Curcumin in oils, Sol",1250 µg/mL
same,solubility at 72 h,"[2]; Castor oil, oil or lipid, in Castor, 37° C., 72 h, read-out: Solubility of Curcumin in oils, Sol",4420 µg/mL
same,solubility at 72 h,"[2]; Citronella oil, oil or lipid, in Citronella, 37° C., 72 h, read-out: Solubility of Curcumin in oils, Sol",13200 µg/mL
same,solubility at 72 h,"[2]; Lavender oil, oil or lipid, in Lavender, 37° C., 72 h, read-out: Solubility of Curcumin in oils, Sol",3440 µg/mL
same,solubility at 72 h,"[2]; Palm Rose oil, oil or lipid, in Palm Rose, 37° C., 72 h, read-out: Solubility of Curcumin in oils, Sol",6030 µg/mL
same,solubility at 72 h,"[2]; aqueous with cosolvent or surfactant or cyclodextrin, in TWEEN® 60 (100% conc), 37° C., 72 h, read-out: Solubility of Curcumin in surfactants, Sol",34 µg/mL
same,solubility at 72 h,"[2]; aqueous with cosolvent or surfactant or cyclodextrin, in TWEEN® 80 (100% conc), 37° C., 72 h, read-out: Solubility of Curcumin in surfactants, Sol",484 µg/mL
same,solubility at 72 h,"[2]; bovine, 37 °C, plasma or biological fluid, in BSA, read-out: Solubility of Curcumin in milk, BSA and Casein",24 µg/mL
same,solubility at 72 h,"[2]; coconut oil, oil or lipid, in Cocconut Oil, 37° C., 72 h, read-out: Solubility of Curcumin in oils, Sol",1680 µg/mL
same,solubility at 72 h,"[2]; oil or lipid, in Arachis Oil, 37° C., 72 h, read-out: Solubility of Curcumin in oils, Sol",160 µg/mL
same,solubility at 72 h,"[2]; oil or lipid, in CAPRYOL™ 90, 37° C., 72 h, read-out: Solubility of Curcumin in oils, Sol",7580 µg/mL
same,solubility at 72 h,"[2]; oil or lipid, in Emu oil, 37° C., 72 h, read-out: Solubility of Curcumin in oils, Sol",1580 µg/mL
same,solubility at 72 h,"[2]; oil or lipid, in Ethyl Oleate, 37° C., 72 h, read-out: Solubility of Curcumin in oils, Sol",589 µg/mL
same,solubility at 72 h,"[2]; oil or lipid, in Glyc Mono ol, 37° C., 72 h, read-out: Solubility of Curcumin in oils, Sol",154 µg/mL
same,solubility at 72 h,"[2]; oil or lipid, in IPM, 37° C., 72 h, read-out: Solubility of Curcumin in oils, Sol",1130 µg/mL
same,solubility at 72 h,"[2]; oil or lipid, in Labrafilm F 1944, 37° C., 72 h, read-out: Solubility of Curcumin in oils, Sol",2560 µg/mL
same,solubility at 72 h,"[2]; oil or lipid, in Labrafilm F2125, 37° C., 72 h, read-out: Solubility of Curcumin in oils, Sol",3590 µg/mL
same,solubility at 72 h,"[2]; oil or lipid, in Lauroglycol, 37° C., 72 h, read-out: Solubility of Curcumin in oils, Sol",2610 µg/mL
same,solubility at 72 h,"[2]; oil or lipid, in Light Paraffin, 37° C., 72 h, read-out: Solubility of Curcumin in oils, Sol",7 µg/mL
same,solubility at 72 h,"[2]; oil or lipid, in Linseed Oil, 37° C., 72 h, read-out: Solubility of Curcumin in oils, Sol",277 µg/mL
same,solubility at 72 h,"[2]; olive oil, oil or lipid, in Oilve, 37° C., 72 h, read-out: Solubility of Curcumin in oils, Sol",501 µg/mL
same,solubility at 72 h,"[2]; organic solvent or mixture, in CREMOPHOR® EL (100% conc), 37° C., 72 h, read-out: Solubility of Curcumin in surfactants, Sol",36600 µg/mL
same,solubility at 72 h,"[2]; organic solvent or mixture, in CREMOPHOR® RH (100% conc), 37° C., 72 h, read-out: Solubility of Curcumin in surfactants, Sol",38700 µg/mL
same,solubility at 72 h,"[2]; organic solvent or mixture, in LABRASOL® (100% conc), 37° C., 72 h, read-out: Solubility of Curcumin in surfactants, Sol",846 µg/mL
same,solubility at 72 h,"[2]; organic solvent or mixture, in PEG 200 (100% conc), 37° C., 72 h, read-out: Solubility of Curcumin in surfactants, Sol",1040 µg/mL
same,solubility at 72 h,"[2]; organic solvent or mixture, in PEG 400 (100% conc), 37° C., 72 h, read-out: Solubility of Curcumin in surfactants, Sol",512 µg/mL
same,solubility at 72 h,"[2]; organic solvent or mixture, in PEG 600 (100% conc), 37° C., 72 h, read-out: Solubility of Curcumin in surfactants, Sol",123 µg/mL
same,solubility at 72 h,"[2]; organic solvent or mixture, in TRANSCUTOL® HP (100% conc), 37° C., 72 h, read-out: Solubility of Curcumin in surfactants, Sol",96400 µg/mL
same,curcumin in portal blood,[3]; 15 minute to 24 hour after administration,trace amount
same,curcumin in heart blood,[3],no curcumin was found
